Reference: US20230019236A1, “PROTEIN TYROSINE PHOSPHATASE INHIBITORS AND METHODS OF USE THEREOF” (Calico Life Sciences LLC, priority 2019, published 2023)

Key:
[1] = biological target: T1, His tagged PTPN2 (TC45) protein (Homo sapiens, UniProt P17706); assay: Mobility Shift Assay used to determine potency of PTPN2 inhibitors; assay type: biochemical; conditions: Table 2; read-out: PTPN2 MSA IC50
T1 construct: made in house
T1 sequence (P17706 with tags, fused parts or gaps isoform P17706-2): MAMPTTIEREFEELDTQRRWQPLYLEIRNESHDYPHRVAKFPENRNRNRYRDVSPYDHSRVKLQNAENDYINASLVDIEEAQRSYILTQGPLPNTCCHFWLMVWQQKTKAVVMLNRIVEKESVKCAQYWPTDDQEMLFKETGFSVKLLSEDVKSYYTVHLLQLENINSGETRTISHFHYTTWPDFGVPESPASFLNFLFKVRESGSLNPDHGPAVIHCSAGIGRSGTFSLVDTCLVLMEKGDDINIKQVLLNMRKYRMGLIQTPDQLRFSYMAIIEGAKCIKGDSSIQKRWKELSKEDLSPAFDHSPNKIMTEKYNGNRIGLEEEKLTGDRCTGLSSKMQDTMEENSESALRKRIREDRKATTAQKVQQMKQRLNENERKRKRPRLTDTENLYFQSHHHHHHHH
Procedure: Example 292: Mobility Shift Assay used to determine potency of PTPN2 inhibitors
Compound activity was determined using in house His tagged PTPN2 (TC45) protein (SEQ ID NO: 1) in an in vitro enzymatic reaction. The enzymatic assay used to determine activity was a mobility shift assay using a LabChip EZ Reader by Caliper Life Sciences. The enzymatic reaction was carried out in assay buffer (50 mM HEPES pH 7.5, 1 mM EGTA, 10 mM EDTA, 0.01% Tween® 20, and 2 mM DTT). The compounds were dispensed on a white 384 well ProxiPlate™ (PerkinElmer Catalog#6008289) plate using the Labcyte Echo at varying concentrations (12 point, 1:3 dilution). The enzyme (at 0.5 nM) was incubated with compound for 10 minutes at room temperature. Then the substrate (phosphorylated insulin receptor probe sequence: ((OG488)—{NH—CH2—CH2—O—CH2—CH2—O—CH2—CO)—T—R—D—I—(PY)—E—T—D—Y—Y—R—K—K—NH2) (SEQ ID NO: 2) was added at 2 μM to the plates and incubated for another 10 minutes at room temperature. Finally, a quench solution (water and 4-bromo-3-(2-oxo-2-propoxyethoxy)-5-(3-{[1-(phenylmethanesulfonyl)piperidin-4-yl]amino}phenyl)thiophene-2-carboxylic acid) was added to the plates, which were then run on the EZ Reader (excitation 488 nm, emission 530 nm) to measure % conversion (the amount of phosphorylated substrate which was de-phosphorylated by PTPN2). […] The % inhibition was then used to calculate the IC50 values.

[2] = biological target: T2, His tagged full-length PTP1B protein (Homo sapiens, UniProt P18031); assay: Mobility Shift Assay (MSA) used to determine potency of PTP1B inhibitors; assay type: biochemical; conditions: Table 2
T2 construct: made in house
T2 sequence (P18031 with tags, fused parts or gaps): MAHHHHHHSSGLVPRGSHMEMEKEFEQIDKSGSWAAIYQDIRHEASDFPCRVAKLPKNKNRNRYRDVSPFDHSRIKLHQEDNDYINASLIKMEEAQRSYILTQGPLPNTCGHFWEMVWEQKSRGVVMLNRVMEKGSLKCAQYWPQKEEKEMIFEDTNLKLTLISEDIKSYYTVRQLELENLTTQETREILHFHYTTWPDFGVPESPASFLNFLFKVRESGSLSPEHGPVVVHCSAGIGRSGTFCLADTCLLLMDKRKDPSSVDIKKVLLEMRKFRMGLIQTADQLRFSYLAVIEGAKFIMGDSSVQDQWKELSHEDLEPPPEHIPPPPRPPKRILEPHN
Procedure: The enzymatic assay used to determine activity is a mobility shift assay using a LabChip EZ Reader by Caliper Life Sciences. The enzymatic reaction was carried out in assay buffer (50 mM HEPES pH 7.5, 1 mM EGTA, 10 mM EDTA, 0.01% Tween® 20, and 2 mM DTT). […] The enzyme (at 0.5 nM) was incubated with compound for 10 minutes at room temperature. […] The % inhibition was then used to calculate the IC50 values.

## C[C@@H](O)C[C@@H](O)COc1ccc2cc(O)c(N3CC(=O)NS3(=O)=O)c(F)c2c1 (racemic) [Compound 325, 5-(7-{[rac-(2R,4R)-2,4-dihydroxypentyl]oxy}-1-fluoro-3-hydroxynaphthalen-2-yl)-1λ^6,2,5-thiadiazolidine-1,1,3-trione]
[1]
  IC50: 1 to 10 nM
[2]
  IC50: 1 to 10 nM

## O=C1CN(c2c(O)cc3ccc(OCCNS(=O)(=O)C4CC4)cc3c2F)S(=O)(=O)N1 [Compound 127, N-(2-{[8-fluoro-6-hydroxy-7-(1,1,4-trioxo-1λ^6,2,5-thiadiazolidin-2-yl)naphthalen-2-yl]oxy}ethyl)cyclopropanesulfonamide]
[1]
  IC50: 1 to 10 nM
[2]
  IC50: 1 to 10 nM

## N#CCC1(COc2ccc3cc(O)c(N4CC(=O)NS4(=O)=O)c(F)c3c2)CC1 [Compound 130, [1-({[8-fluoro-6-hydroxy-7-(1,1,4-trioxo-1λ^6,2,5-thiadiazolidin-2-yl)naphthalen-2-yl]oxy}methyl)cyclopropyl]acetonitrile]
[1]
  IC50: 1 to 10 nM
[2]
  IC50: 1 to 10 nM

## N#CC1(COc2ccc3cc(O)c(N4CC(=O)NS4(=O)=O)c(F)c3c2)CC1 [Compound 199, 1-({[8-fluoro-6-hydroxy-7-(1,1,4-trioxo-1λ^6,2,5-thiadiazolidin-2-yl)naphthalen-2-yl]oxy}methyl)cyclopropane-1-carbonitrile]
[1]
  IC50: 1 to 10 nM
[2]
  IC50: > 100 nM

## CC(O)(CO)CCOc1ccc2cc(O)c(N3CC(=O)NS3(=O)=O)c(F)c2c1 (centres unmarked) [Compound 323, 5-[7-(3,4-dihydroxy-3-methylbutoxy)-1-fluoro-3-hydroxynaphthalen-2-yl]-1λ^6,2,5-thiadiazolidine-1,1,3-trione]
[1]
  IC50: < 1 nM
[2]
  IC50: < 1 nM

## O=C1CN(c2c(O)cc3ccc(NCCCC(F)F)cc3c2F)S(=O)(=O)N1 [Compound 324, 5-{7-[(4,4-difluorobutyl)amino]-1-fluoro-3-hydroxynaphthalen-2-y}-1λ^6,2,5-thiadiazolidine-1,1,3-trione]
[1]
  IC50: < 1 nM
[2]
  IC50: < 1 nM

## O=C1CN(c2c(O)cc3ccc(OCCN4CCNC4=O)cc3c2F)S(=O)(=O)N1 [Compound 326, 5-{1-fluoro-3-hydroxy-7-[2-(2-oxoimidazolidin-1-yl)ethoxy]naphthalen-2-yl}-1λ^6,2,5-thiadiazolidine-1,1,3-trione]
[1]
  IC50: < 1 nM
[2]
  IC50: 10 to 100 nM

## CCC(O)COc1ccc2cc(O)c(N3CC(=O)NS3(=O)=O)c(F)c2c1 (centres unmarked) [Compound 327, 5-[1-fluoro-3-hydroxy-7-(2-hydroxybutoxy)naphthalen-2-yl]-1λ^6,2,5-thiadiazolidine-1,1,3-trione]
[1]
  IC50: < 1 nM
[2]
  IC50: < 1 nM

## O=C1CN(c2c(O)cc3cc(O)ccc3c2F)S(=O)(=O)N1 [Compound 328, 5-(1-fluoro-3,6-dihydroxynaphthalen-2-yl)-1λ^6,2,5-thiadiazolidine-1,1,3-trione]
[1]
  IC50: < 1 nM
[2]
  IC50: 1 to 10 nM

## Nc1ccc2c(F)c(N3CC(=O)NS3(=O)=O)c(O)cc2c1 [Compound 329, 5-(6-amino-1-fluoro-3-hydroxynaphthalen-2-yl)-1λ^6,2,5-thiadiazolidine-1,1,3-trione]
[1]
  IC50: 1 to 10 nM
[2]
  IC50: 10 to 100 nM

## O=C1CN(c2c(O)cc3cc(NCCCC(F)F)ccc3c2F)S(=O)(=O)N1 [Compound 330, 5-{6-[(4,4-difluorobutyl)amino]-1-fluoro-3-hydroxynaphthalen-2-y}-1λ^6,2,5-thiadiazolidine-1,1,3-trione]
[1]
  IC50: 10 to 100 nM
[2]
  IC50: 10 to 100 nM

## O=C1CN(c2c(O)cc3cc(NCC4CC4)ccc3c2F)S(=O)(=O)N1 [Compound 331, 5-{6-[(cyclopropylmethyl)amino]-1-fluoro-3-hydroxynaphthalen-2-yl}-1λ^6,2,5-thiadiazolidine-1,1,3-trione]
[1]
  IC50: 10 to 100 nM
[2]
  IC50: 10 to 100 nM

## CC(C)CCNc1ccc2c(F)c(N3CC(=O)NS3(=O)=O)c(O)cc2c1 [Compound 332, 5-{1-fluoro-3-hydroxy-6-[(3-methylbutyl)amino]naphthalen-2-yl}-1λ^6,2,5-thiadiazolidine-1,1,3-trione]
[1]
  IC50: 10 to 100 nM
[2]
  IC50: 10 to 100 nM

## CC(C)(O)CCNc1ccc2c(F)c(N3CC(=O)NS3(=O)=O)c(O)cc2c1 [Compound 333, 5-{1-fluoro-3-hydroxy-6-[(3-hydroxy-3-methylbutyl)amino]naphthalen-2-yl}-1λ^6,2,5-thiadiazolidine-1,1,3-trione]
[1]
  IC50: 10 to 100 nM
[2]
  IC50: 10 to 100 nM

## CC(C)(O)CCOc1ccc2c(F)c(N3CC(=O)NS3(=O)=O)c(O)cc2c1 [Compound 334, 5-[1-fluoro-3-hydroxy-6-(3-hydroxy-3-methylbutoxy)naphthalen-2-yl]-1λ^6,2,5-thiadiazolidine-1,1,3-trione]
[1]
  IC50: 10 to 100 nM
[2]
  IC50: > 100 nM

## COc1ccc2c(F)c(N3CC(=O)NS3(=O)=O)c(O)cc2c1 [Compound 335, 5-(1-fluoro-3-hydroxy-6-methoxynaphthalen-2-yl)-11λ^6,2,5-thiadiazolidine-1,1,3-trione]
[1]
  IC50: 10 to 100 nM
[2]
  IC50: 10 to 100 nM

## CC(C)(C)OC(=O)NCCOc1ccc2c(F)c(N3CC(=O)NS3(=O)=O)c(O)cc2c1 [Compound 336, tert-butyl (2-{[5-fluoro-7-hydroxy-6-(1,1,4-trioxo-1λ^6,2,5-thiadiazolidin-2-yl)naphthalen-2-yl]oxy}ethyl)carbamate]
[1]
  IC50: 10 to 100 nM
[2]
  IC50: 10 to 100 nM

## NCCOc1ccc2c(F)c(N3CC(=O)NS3(=O)=O)c(O)cc2c1 [Compound 337, 5-[6-(2-aminoethoxy)-1-fluoro-3-hydroxynaphthalen-2-yl]-1λ^6,2,5-thiadiazolidine-1,1,3-trione]
[1]
  IC50: 10 to 100 nM
[2]
  IC50: 10 to 100 nM

## O=C1CN(c2c(O)cc3cc(OCC4CC4)ccc3c2F)S(=O)(=O)N1 [Compound 338, 5-[6-(cyclopropylmethoxy)-1-fluoro-3-hydroxynaphthalen-2-yl]-1λ^6,2,5-thiadiazolidine-1,1,3-trione]
[1]
  IC50: 10 to 100 nM
[2]
  IC50: 10 to 100 nM

## O=C1CN(c2c(O)cc3ccc(OCCN4CC(F)(F)C4)cc3c2F)S(=O)(=O)N1 [Compound 385, 5-{7-[2-(3,3-difluoroazetidin-1-yl)ethoxy]-1-fluoro-3-hydroxynaphthalen-2-yl}-1λ^6,2,5-thiadiazolidine-1,1,3-trione]
[1]
  IC50: 1 to 10 nM

## CC1(CCOc2cc3c(F)c(N4CC(=O)NS4(=O)=O)c(O)cc3cc2O)CC1 [Compound 386, 5-{1-fluoro-3,6-dihydroxy-7-[2-(1-methylcyclopropyl)ethoxy]naphthalen-2-yl}-1λ^6,2,5-thiadiazolidine-1,1,3-trione]
[1]
  IC50: < 1 nM

## C[C@](O)(CO)CCOc1cc2c(F)c(N3CC(=O)NS3(=O)=O)c(O)cc2cc1O [Compound 387, 5-{7-[(3R)-3,4-dihydroxy-3-methylbutoxy]-1-fluoro-3,6-dihydroxynaphthalen-2-yl}-1λ^6,2,5-thiadiazolidine-1,1,3-trione]
[1]
  IC50: < 1 nM

## CCN(C)CCOc1ccc2cc(O)c(N3CC(=O)NS3(=O)=O)c(F)c2c1 [Compound 388, 5-(7-{2-[ethyl(methyl)amino]ethoxy}-1-fluoro-3-hydroxynaphthalen-2-yl)-1λ^6,2,5-thiadiazolidine-1,1,3-trione]
[1]
  IC50: 1 to 10 nM

## CN(CCC#N)CCOc1ccc2cc(O)c(N3CC(=O)NS3(=O)=O)c(F)c2c1 [Compound 389, 3-[(2-{[8-fluoro-6-hydroxy-7-(1,1,4-trioxo-1λ^6,2,5-thiadiazolidin-2-yl)naphthalen-2-yl]oxy}ethyl)(methyl)amino]propanenitrile]
[1]
  IC50: 1 to 10 nM

## O=C1CN(c2c(O)cc3ccc(OCCNCC(F)(F)F)cc3c2F)S(=O)(=O)N1 [Compound 390, 5-(1-fluoro-3-hydroxy-7-{2-[(2,2,2-trifluoroethyl)amino]ethoxy}naphthalen-2-yl)-1λ^6,2,5-thiadiazolidine-1,1,3-trione]
[1]
  IC50: 1 to 10 nM
